Measurements as given in ChEMBL document CHEMBL1146403, “Three new cryptophycins from Nostoc sp. GSV 224” (J Nat Prod, 1997).

What was measured:
Type in all cases: functional, cell-based
LoVo = assay: Cytotoxicity against human LoVo cells
SK-OV-3 = assay: Cytotoxicity against human SKOV3 cells
KB = assay: Cytotoxicity against human KB cells

| Compound | IC50 (LoVo) [nM] | IC50 (SK-OV-3) [nM] | IC50 (KB) [nM] |
| --- | --- | --- | --- |
| COc1ccc(C[C@H]2NC(=O)/C=C/C[C@@H]([C@H](C)/C=C/c3ccccc3)OC(=O)[C@H](CC(C)C)OC(=O)[C@H](C)CNC2=O)cc1Cl [CRYPTOPHYCIN 3] | 1.9 | 1.9 | 1.9 |
| COc1ccc(C[C@@H]2NC(=O)/C=C/C[C@@H]([C@H](C)/C=C/c3ccccc3)OC(=O)[C@H](CC(C)C)OC(=O)[C@H](C)CNC2=O)cc1Cl [CRYPTOPHYCIN 46] | 750 | 750 | 750 |
| COc1c(Cl)cc(C[C@H]2NC(=O)/C=C/C[C@@H]([C@H](C)/C=C/c3ccccc3)OC(=O)[C@H](CC(C)C)OC(=O)[C@H](C)CNC2=O)cc1Cl [CRYPTOPHYCIN 175] | 100 | 100 | 100 |
| CC(C)C[C@@H]1OC(=O)CCNC(=O)[C@@H](Cc2ccc(O)c(Cl)c2)NC(=O)/C=C/C[C@@H]([C@H](C)[C@H]2O[C@@H]2c2ccccc2)OC1=O [CRYPTOPHYCIN 176] | 1.3 | 1.3 | 1.3 |
| COc1ccc(C[C@H]2NC(=O)/C=C/C[C@@H]([C@H](C)[C@H]3O[C@@H]3c3ccccc3)OC(=O)[C@H](CC(C)C)OC(=O)[C@H](C)CNC2=O)cc1Cl [CRYPTOPHYCIN A] | 0.0092 | 0.0092 | 0.0092 |
